# Source: PubChem BioAssay AID330 (DTP/NCI, 2004)
# Where “and” joins values, the source holds several entries; their conditions need not be identical. Equal values may be shown once. Inconclusive results and toxic doses are left out.
# System: P388 leukemia ip, CD2F1 mice, survival T/C
# Assay: NCI In Vivo Anticancer Drug Screen. Data for tumor model P388 Leukemia (intraperitoneal) in CD2F1 (CDF1) mice
# Conditions: endpoint: median survival time, higher = longer survival
# Outline: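 Mice carrying the transplanted tumor received test compound or vehicle. Survival was recorded in each group, and the value is the treated-group measurement divided by that of the vehicle-treated control group.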
# [1] = dose: 100.0 mg/kg/injection, schedule: Q04DX003 (ip), vehicle: saline
# [2] = dose: 200.0 mg/kg/injection, schedule: Q04DX003 (ip), vehicle: saline
# [3] = dose: 400.0 mg/kg/injection, schedule: Q04DX003 (ip), vehicle: saline
# [4] = dose: 100.0 mg/kg/injection, schedule: Q01DX001 (ip), vehicle: saline with Tween-80
# [5] = dose: 200.0 mg/kg/injection, schedule: Q01DX001 (ip), vehicle: saline with Tween-80
# [6] = dose: 50.0 mg/kg/injection, schedule: Q01DX005 (ip), vehicle: saline with Tween-80
# [7] = dose: 100.0 mg/kg/injection, schedule: Q01DX005 (ip), vehicle: saline with Tween-80
# [8] = dose: 60.0 mg/kg/injection, schedule: Q01DX005 (ip), vehicle: saline with Tween-80
# [9] = dose: 120.0 mg/kg/injection, schedule: Q01DX005 (ip), vehicle: saline with Tween-80
# [10] = dose: 200.0 mg/kg/injection, schedule: Q01DX005 (ip), vehicle: saline with Tween-80
# [11] = dose: 240.0 mg/kg/injection, schedule: Q01DX005 (ip), vehicle: saline with Tween-80
# [12] = dose: 100.0 mg/kg/injection, schedule: Q04DX002 (ip), vehicle: saline with Tween-80
# [13] = dose: 200.0 mg/kg/injection, schedule: Q04DX002 (ip), vehicle: saline with Tween-80
# [14] = dose: 400.0 mg/kg/injection, schedule: Q04DX002 (ip), vehicle: saline with Tween-80
# [15] = dose: 25.0 mg/kg/injection, schedule: Q01DX009 (ip), vehicle: Klucel (hydroxypropylcellulose) (HPC)
# [16] = dose: 50.0 mg/kg/injection, schedule: Q01DX009 (ip), vehicle: Klucel (hydroxypropylcellulose) (HPC)
structure (smiles),measurement,setting,value
C1CCCC2(CC1)OCCO2,T/C,[1],101 % of control
same,T/C,[2],97 % of control
same,T/C,[3],98 % of control
COc1cc2c(cc1OC)C(=O)C(=C1C=CN(C)C=C1)N=C2,T/C,[1],101 % of control
same,T/C,[2],95 % of control
same,T/C,[3],100 % of control
COc1cc2cc(c1Cl)N(C)C(=O)C[C@H](OC(=O)[C@H](C)N(C)C(=O)CC(C)C)[C@]1(C)O[C@H]1[C@H](C)[C@@H]1C[C@@](O)(NC(=O)O1)[C@H](OC)C=C/C=C(\C)C2,T/C,"dose: 0.1 micrograms/kg/injection, schedule: Q01DX009 (ip), vehicle: saline",107 % of control
same,T/C,"dose: 0.2 micrograms/kg/injection, schedule: Q01DX009 (ip), vehicle: saline",107 % of control
same,T/C,"dose: 0.4 micrograms/kg/injection, schedule: Q01DX009 (ip), vehicle: saline",114 % of control
same,T/C,"dose: 6.3 micrograms/kg/injection, schedule: Q01DX009 (ip), vehicle: saline + alcohol",158 % of control
same,T/C,"dose: 12.5 micrograms/kg/injection, schedule: Q01DX009 (ip), vehicle: saline + alcohol",169 % of control
same,T/C,"dose: 25.0 micrograms/kg/injection, schedule: Q01DX009 (ip), vehicle: saline + alcohol",198 % of control
C=C(C)C1(O)c2c(Cl)cccc2C(c2ccccc2)c2cccc(Cl)c21 (stereo unspecified),T/C,[4],110 % of control
same,T/C,[5],107 % of control
same,T/C,"dose: 400.0 mg/kg/injection, schedule: Q01DX001 (ip), vehicle: saline with Tween-80",100 % of control
Nc1ccc(N=Nc2ccncc2)c2ccccc12,T/C,[6],100 % of control
same,T/C,[7],100 % of control
S=C1CC2CCCC(C2)N1 (stereo unspecified),T/C,"dose: 1.87 mg/kg/injection, schedule: Q01DX005 (ip), vehicle: Klucel (hydroxypropylcellulose) (HPC)",95 % of control
same,T/C,"dose: 3.75 mg/kg/injection, schedule: Q01DX005 (ip), vehicle: Klucel (hydroxypropylcellulose) (HPC)",100 % of control
same,T/C,"dose: 7.5 mg/kg/injection, schedule: Q01DX005 (ip), vehicle: Klucel (hydroxypropylcellulose) (HPC)",101 % of control and 94 % of control
Cc1ccc(C=C(C#N)C#N)o1,T/C,[8],102 % of control
same,T/C,[9],105 % of control
O=C(c1ccco1)N1CCN(C(=O)c2ccco2)CC1,T/C,[6],104 % of control
same,T/C,[7],96 % of control
same,T/C,[10],100 % of control
CCc1cccc(C)c1NC(=O)C(=O)CC(=O)CS(=O)(=O)c1ccc(C)cc1,T/C,[8],109 % of control
same,T/C,[9],111 % of control
same,T/C,[11],104 % of control
O=C1C=C(NCCc2cc3c(cc2Br)OCO3)CCC1,T/C,[12],97 % of control
same,T/C,[13],91 % of control
same,T/C,[14],95 % of control
Cc1ccc(S(=O)(=O)N=N/C=C2/C=CC=CN2O)cc1,T/C,[15],118 % of control and 121 % of control
same,T/C,[16],119 % of control
same,T/C,"dose: 200.0 mg/kg/injection, schedule: Q01DX009 (ip), vehicle: Klucel (hydroxypropylcellulose) (HPC)",124 % of control
CCc1cc(C2C(=O)c3ccccc3C2=O)cc(CC)c1O,T/C,"dose: 100.0 mg/kg/injection, schedule: Q04DX002 (ip), vehicle: saline",107 % of control
same,T/C,"dose: 200.0 mg/kg/injection, schedule: Q04DX002 (ip), vehicle: saline",105 % of control
same,T/C,"dose: 400.0 mg/kg/injection, schedule: Q04DX002 (ip), vehicle: saline",110 % of control
Cc1cc(C)n(P2(n3nc(C)cc3C)=NP(n3nc(C)cc3C)(n3nc(C)cc3C)=NP(n3nc(C)cc3C)(n3nc(C)cc3C)=N2)n1,T/C,[6],98 % of control
same,T/C,[7],98 % of control
same,T/C,[10],99 % of control
CCOC(=O)C1C(c2cc(OC)c(OC)c(OC)c2)c2cc3c(cc2OC1(C)OC)OCO3 (stereo unspecified),T/C,[8],86 % of control
same,T/C,[9],86 % of control
same,T/C,[11],88 % of control
C[C@H]1CC[C@@H]2O[C@@]23C(=O)OC2OC(C)(C)[C@@H]([C@H]2O)[C@]13C,T/C,"dose: 50.0 mg/kg/injection, schedule: Q01DX005 (ip), vehicle: Klucel (hydroxypropylcellulose) (HPC)",102 % of control
same,T/C,"dose: 100.0 mg/kg/injection, schedule: Q01DX005 (ip), vehicle: Klucel (hydroxypropylcellulose) (HPC)",96 % of control
same,T/C,"dose: 200.0 mg/kg/injection, schedule: Q01DX005 (ip), vehicle: Klucel (hydroxypropylcellulose) (HPC)",107 % of control
Cn1c(=O)c2c(nc(NCC[N+](C)(C)Cc3ccc(Cl)cc3)n2C)n(C)c1=O,T/C,"dose: 6.25 mg/kg/injection, schedule: Q01DX009 (ip), vehicle: Klucel (hydroxypropylcellulose) (HPC)",93 % of control
same,T/C,"dose: 12.5 mg/kg/injection, schedule: Q01DX009 (ip), vehicle: Klucel (hydroxypropylcellulose) (HPC)",101 % of control
same,T/C,[15],113 % of control and 94 % of control
O=[N+]([O-])c1nccn1CC(O)CCN1CCOCC1 (stereo unspecified),T/C,"dose: 25.0 mg/kg/injection, schedule: Q01DX005 (ip), vehicle: saline",110 % of control
same,T/C,"dose: 50.0 mg/kg/injection, schedule: Q01DX005 (ip), vehicle: saline",102 % of control
same,T/C,"dose: 100.0 mg/kg/injection, schedule: Q01DX005 (ip), vehicle: saline",102 % of control
same,T/C,"dose: 200.0 mg/kg/injection, schedule: Q01DX005 (ip), vehicle: saline",106 % of control
same,T/C,"dose: 400.0 mg/kg/injection, schedule: Q01DX005 (ip), vehicle: saline",101 % of control
Cn1cc(Cc2c[nH]c3ccccc3c2=O)c2ccccc21,T/C,[8],107 % of control
same,T/C,[9],99 % of control
same,T/C,[11],97 % of control
C[C@H]1C[C@H](c2ccccc2)[C@@H](c2ccccc2)C(=O)O1,T/C,"dose: 100.0 mg/kg/injection, schedule: Q04DX003 (ip), vehicle: Klucel (hydroxypropylcellulose) (HPC)",93 % of control
same,T/C,"dose: 200.0 mg/kg/injection, schedule: Q04DX003 (ip), vehicle: Klucel (hydroxypropylcellulose) (HPC)",92 % of control
same,T/C,"dose: 400.0 mg/kg/injection, schedule: Q04DX003 (ip), vehicle: Klucel (hydroxypropylcellulose) (HPC)",92 % of control
Nc1nc(-c2ccccc2)nc(Cl)c1I,T/C,"dose: 25.0 mg/kg/injection, schedule: Q01DX009 (ip), vehicle: saline with Tween-80",103 % of control
same,T/C,"dose: 50.0 mg/kg/injection, schedule: Q01DX009 (ip), vehicle: saline with Tween-80",105 % of control
same,T/C,"dose: 100.0 mg/kg/injection, schedule: Q01DX009 (ip), vehicle: saline with Tween-80",102 % of control
same,T/C,[1],94 % of control
same,T/C,"dose: 200.0 mg/kg/injection, schedule: Q01DX009 (ip), vehicle: saline with Tween-80",105 % of control
same,T/C,[2],94 % of control
same,T/C,[3],101 % of control
CN(C)c1cc[n+](C=O)cc1,T/C,"dose: 3.75 mg/kg/injection, schedule: Q01DX005 (ip), vehicle: saline",102 % of control
same,T/C,"dose: 7.5 mg/kg/injection, schedule: Q01DX005 (ip), vehicle: saline",95 % of control
same,T/C,"dose: 15.0 mg/kg/injection, schedule: Q01DX005 (ip), vehicle: saline",100 % of control
CC(=O)C[n+]1ccccc1Cc1ccccc1,T/C,"dose: 25.0 mg/kg/injection, schedule: Q01DX005 (ip), vehicle: saline with Tween-80",99 % of control
same,T/C,[6],100 % of control
O=C1CCC(O)=C1C1=NCCCC1,T/C,[12],94 % of control
same,T/C,[13],108 % of control
same,T/C,[14],101 % of control
COC(=N)C1=CC(C)(C)N(O)C1(C)C,T/C,"dose: 100.0 mg/kg/injection, schedule: Q01DX001 (ip), vehicle: saline",96 % of control
same,T/C,"dose: 200.0 mg/kg/injection, schedule: Q01DX001 (ip), vehicle: saline",102 % of control
same,T/C,"dose: 400.0 mg/kg/injection, schedule: Q01DX001 (ip), vehicle: saline",98 % of control
COc1ccc2c(c1)[C@]13CCN(C)[C@H](C2)[C@@H]1CCC1(C3)OCCO1,T/C,[4],104 % of control
same,T/C,[5],106 % of control
Cc1nc2c([N+](=O)[O-])c(NCCCc3ccccc3)c([N+](=O)[O-])cc2[nH]1,T/C,"dose: 50.0 mg/kg/injection, schedule: Q04DX003 (ip), vehicle: saline with Tween-80",94 % of control
same,T/C,"dose: 100.0 mg/kg/injection, schedule: Q04DX003 (ip), vehicle: saline with Tween-80",100 % of control and 96 % of control
CCOC(=O)c1csc(Br)n1,T/C,[8],104 % of control
same,T/C,[9],100 % of control
same,T/C,[11],100 % of control
Nc1cc2ccncc2c2ccccc12,T/C,"dose: 50.0 mg/kg/injection, schedule: Q04DX003 (ip), vehicle: saline sonified",100 % of control
same,T/C,"dose: 100.0 mg/kg/injection, schedule: Q04DX003 (ip), vehicle: saline sonified",90 % of control
same,T/C,"dose: 200.0 mg/kg/injection, schedule: Q04DX003 (ip), vehicle: saline sonified",95 % of control
O=C(O)c1cc(Cc2ccc(O)c(C(=O)O)c2)ccc1O (tested in a mixture with another compound),T/C,[15],112 % of control
same,T/C,[16],107 % of control and 115 % of control
same,T/C,"dose: 100.0 mg/kg/injection, schedule: Q01DX009 (ip), vehicle: Klucel (hydroxypropylcellulose) (HPC)",121 % of control
